Data: US6653074B1, “Methods for identifying agents which affect cellular morphology, locomotion and death” (Fox Chase Cancer Center, priority 1995, dated 2003)

Columns and labels:
MCF-7 cells = assay: Induction of apoptosis by TNF-α in MCF-7 cells, Western blot of caspase cleavage products and cell death; format: cell-based, human; details: 48 hours
Procedure: Induction of apoptosis. MCF-7 cells were plated and grown for 48 hours reaching a cell density of 70% prior to TNF-α addition. Media was replaced with fresh media supplemented with 100 ng/ml TNF-α. TNF-α treatment of stable cell lines was carried out by plating, cells directly into fresh DMEM plus 10% fetal bovine serum, with or without addition of tetracycline as indicated, containing 100 ng/ml TNF-α. Cells floating in the media were collected by centrifugation (1,200 rpm, 5 min) and extracted in combination with attached cells at the time points indicated, as described below. WeHI 231 cells were plated at a density of 5×10^4 cells/ml and treated with 1 μg/ml of α-IgM antibodies in complete media. Cells were collected by centrifugation and lysed as stated below.
Lysates were made as previously described (39; 41) in A-PTY buffer (50 mM HEPES, pH 7.5, 50 mM NaCl, 5 mM EDTA, 1% Triton X-100, 50 mM NaF, 10 mM Na4P2O7 and supplemented each extraction with 1 mM phenylmethylsulfonylfluoride, 0.01 mg/ml aprotinin and 0.01 mg/ml leupeptin). For adherent cultures, floating cells were pooled with the adherent cells prior to lysis. The cell pellet was then lysed in combination with lysates from the attached cells. […] Detection was via chemiluminescence as described (Law et al. (1996) Mol. Cell. Biol. 16: 3327-3337).

caspase 3 = assay: Caspase activity assay: Ac-DEVD-pNA cleavage by lysates of HEF1-expressing MCF-7 cells; format: biochemical, human; details: z-DEVD-fmk 0.5 μM; Ac-DEVD-pNA 250 μM; lysates of induced HEF1 cells; 24 hr; 405 nm
Procedure: HEF1 expression and caspase activity. Stable cell lines containing parental tetracycline-regulatable vector with or without the full length HEF1 cDNA were generated in MCF-7 cells (Example 2). These were plated at a density of approximately 1×10^6 cells per 100 mm plate into fresh DMEM plus 10% fetal bovine serum in the absence of tetracycline and other selective antibiotics (induced) or in the presence of 1 μg/ml tetracycline (uninduced). Floating and attached cells were combined and extracted in caspase assay buffer (50 mM HEPES, pH 7.4, 100 mM NaCl, 0.1% CHAPS, 10 mM DTT, 1 mM EDTA, and 10% glycerol). Protein content of extracts was determined using the Bio-Rad protein assay as per the manufacturer's instructions (Bio-Rad, Hercules, Calif.). Caspase assays were performed as previously described (DiPietrantonio et al. (1999) Biochem Biophys Res Commun 255:477-82). […] Triplicate samples were incubated at room temperature and the release of pNA product was monitored at 405 nm a microtiter plate reader (Multiskan Plus, Labsystems, Helsinki. Finland). Initial readings were taken at the start of the incubation (T0) and final readings were taken at the completion of the reaction at 24 hr (T1). The change in absorbance over time was determined by subtracting T0 from T1 for each sample.

[1] = molecular target: the molecule itself; assay: yeast two-hybrid analysis
Excerpt: EGY48 yeast (Gyuris et al., 1993, supra) were transformed by standard methods with plasmids expressing LexA-fusions, activation-domain fusions, or both, together with the LexA operator-LacZ reporter SH18-34 (Gyuris et al., 1993, supra). For all fusion proteins, synthesis of a fusion protein of the correct length in yeast was confirmed by Western blot assays of yeast extracts (Samson et al., Cell 57: 1045–1052, 1989) using polyclonal antiserum specific for LexA (Brent and Ptashne, Nature 312: 612–615, 1984) or for hemagglutinin (Babco, Inc), as appropriate. Activation of the LacZ reporter was determined as previously described (Brent and Ptashne, Cell 43: 729–736, 1985). Beta-galactosidase assays were performed on three independent colonies, on three separate occasions, and values for particular plasmid combinations varied less than 25%. Activation of the LEU2 reporter was determined by observing the colony forming ability of yeast plated on complete minimal medium lacking leucine. The LexA-PRD/HD expressing plasmid has been described (Golemis and Brent, Mol. Cell Biol. 12: 3006–3014, 1992).
The possible functions for the novel carboxy-terminal domains were investigated further using two-hybrid analysis.

Q: Which results are given for TNF-α?
A: cell rounding and death, gross morphology (MCF-7 cells; TNF-α alone, uninduced cells): low level of cell rounding and death; cell death (MCF-7 cells; TNF-α together with HEF1 induction): ~100%; PARP cleavage (MCF-7 cells; uninduced HEF1 cells and vector control MCF-7 cells, TNF-α): detected

Q: z-DEVD-fmk was tested. Which “activity towards the caspase 3 substrate Ac-DEVD-pNA in HEF1 expressing cells” value (caspase 3) did it give?
A: The value was “potently blocked”.

B1: HEF1 carboxy-terminal domain (other)
chain: IMKQNKMQLEHHQLSQFQLLEQEITKPVENDISKWKPSQSLPTTNSGVSAQDRQLLCFYYDQCETHFISLLNAIDALFSCVSSAQPPRIFVAHSKFVILSAHKLVFIGDTLTRQVTAQDIRNKVMNSSNQLCEQLKTIVMATKMAALHYPSTTALQEMVHQVTDLSRNAQLFKRSLLEMATF
notes: Tested as a two-hybrid fusion; also called C-terminal effector domain; HEF1-Cterm182
Q: Does B1 bind [1]?
A: Result: binds
